Test results from ChEMBL document CHEMBL1132589, “Phosphotyrosine-containing dipeptides as high-affinity ligands for the p56lck SH2 domain” (J Med Chem, 1999).
Where a SMILES comes first, the peptide text is derived from it. [ ]: non-standard residue; d: D form. The star is where a group is joined. pY = N[C@@H](Cc1ccc(OP(=O)(O)O)cc1)C(=O)O; NHPhenethyl = c1ccc(CCN*)cc1; NHBn = c1ccc(CN*)cc1; NHPh = c1ccc(N*)cc1

Molecular target: Tyrosine-protein kinase Lck (Homo sapiens, UniProt P06239)
Sequence (P06239 whole entry): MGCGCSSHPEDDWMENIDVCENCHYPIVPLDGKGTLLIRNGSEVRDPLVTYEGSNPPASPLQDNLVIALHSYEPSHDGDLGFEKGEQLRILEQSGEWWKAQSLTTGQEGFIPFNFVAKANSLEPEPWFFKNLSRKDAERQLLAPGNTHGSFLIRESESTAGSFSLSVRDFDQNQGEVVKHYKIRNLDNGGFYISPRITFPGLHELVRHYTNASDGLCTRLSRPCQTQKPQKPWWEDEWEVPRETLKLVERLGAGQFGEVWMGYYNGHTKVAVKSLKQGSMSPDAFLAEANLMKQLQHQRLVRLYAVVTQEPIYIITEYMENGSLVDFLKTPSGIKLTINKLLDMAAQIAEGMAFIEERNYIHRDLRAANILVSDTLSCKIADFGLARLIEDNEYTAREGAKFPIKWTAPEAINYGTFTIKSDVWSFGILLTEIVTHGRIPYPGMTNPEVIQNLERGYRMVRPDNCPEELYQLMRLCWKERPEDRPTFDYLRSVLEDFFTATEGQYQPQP
Description: Binding affinity against p56 Lck tyrosine kinase SH2 domain was measured using glutathione S-transferase (GST) fusion protein

Row | Kd [µM] | Structure (SMILES)
1 | 1.5 | CC(=O)N[C@@H](Cc1ccc(OP(=O)(O)O)cc1)C(=O)N[C@@H](CC(C)C)C(=O)N[C@@H](C)c1ccc(C)cc1
2 | 9 | COc1cccc(CNC(=O)[C@H](CC(C)C)NC(=O)[C@H](Cc2ccc(OP(=O)(O)O)cc2)NC(C)=O)c1
3 | 8 | CC(=O)N[C@@H](Cc1ccc(OP(=O)(O)O)cc1)C(=O)N[C@@H](CCC(=O)O)C(=O)Nc1ccccc1 (Ac-[pY]-Glu-NHPh)
4 | 8 | CC(=O)N[C@@H](Cc1ccc(OP(=O)(O)O)cc1)C(=O)N[C@@H](CC(C)C)C(=O)NCc1ccc(C(C)(C)C)cc1
5 | 20 | CC(=O)N[C@@H](Cc1ccc(OP(=O)(O)O)cc1)C(=O)N[C@@H](CC(C)C)C(=O)NCc1ccc(N(C)C)cc1
6 | 0.2 | COc1ccc(CNC(=O)[C@H](CCC(=O)O)NC(=O)[C@H](Cc2ccc(OP(=O)(O)O)cc2)NC(C)=O)cc1
7 | 4 | CC(=O)N[C@@H](Cc1ccc(OP(=O)(O)O)cc1)C(=O)N[C@@H](CCC(=O)O)C(=O)NCCc1ccccc1 (Ac-[pY]-Glu-NHPhenethyl)
8 | 2 | CC(=O)N[C@@H](Cc1ccc(OP(=O)(O)O)cc1)C(=O)N[C@@H](CC(C)C)C(=O)N(C)Cc1ccc(C)cc1
9 | 17 | COc1ccccc1CNC(=O)[C@H](CC(C)C)NC(=O)[C@H](Cc1ccc(OP(=O)(O)O)cc1)NC(C)=O
10 | 34 | CC(=O)N[C@@H](Cc1ccc(OP(=O)(O)O)cc1)C(=O)N[C@@H](CC(C)C)C(=O)NCc1cccnc1

The next lines start with the compound.

Row | Structure (SMILES) | Kd [µM]
11 | CC(=O)N[C@@H](Cc1ccc(OP(=O)(O)O)cc1)C(=O)N[C@@H](CC(C)C)C(=O)NCc1ccncc1 | 16
12 | CC(=O)N[C@@H](Cc1ccc(OP(=O)(O)O)cc1)C(=O)N[C@@H](CC(C)C)C(=O)NCc1ccccc1 (Ac-[pY]-Leu-NHBn) | 16
13 | CC(=O)N[C@@H](Cc1ccc(OP(=O)(O)O)cc1)C(=O)N[C@@H](CC(C)C)C(=O)NCc1ccc(C(C)C)cc1 | 0.8
14 | CC(=O)N[C@@H](Cc1ccc(OP(=O)(O)O)cc1)C(=O)N[C@@H](CC(C)C)C(=O)N[C@H](C)c1ccc(C)cc1 | 27
15 | CC(=O)N[C@@H](Cc1ccc(OP(=O)(O)O)cc1)C(=O)N[C@@H](CC(C)C)C(=O)NCc1ccc(C)cc1 | 2.5
16 | COc1ccc(CNC(=O)[C@H](CC(C)C)NC(=O)[C@H](Cc2ccc(OP(=O)(O)O)cc2)NC(C)=O)cc1OC | 12
17 | CC(=O)N[C@@H](Cc1ccc(OP(=O)(O)O)cc1)C(=O)N[C@@H](CC(C)C)C(=O)N[C@@H](C)c1ccc(C(C)C)cc1 | 0.2
18 | COc1ccc(CNC(=O)[C@H](CC(C)C)NC(=O)[C@H](Cc2ccc(OP(=O)(O)O)cc2)NC(C)=O)cc1 | 1.5
19 | CC(=O)N[C@@H](Cc1ccc(OP(=O)(O)O)cc1)C(=O)N[C@@H](CC(C)C)C(=O)NCc1ccccn1 | 31
